# Reference: PMC12384454, “Study of the Lipophilicity of Tetracyclic Anticancer Azaphenothiazines” (Biomolecules, 2025)
# Entries after “also recorded” stand apart in the source; their conditions may differ. Read-outs that look alike come from different tables or passages of the source.
# What was measured:
# MDA = system: MDA; set-up: method as in earlier work; details: cited from earlier work; for IC50: MTT assay; for SI MDA: selectivity index vs HaCaT
# A549 cells = details: cited from earlier work; for IC50: MTT assay; for SI A549: selectivity index vs HaCaT
# HaCaT cells = details: cited from earlier work; for IC50: MTT assay, normal cells; for cytotoxic effects on HaCaT cells: in words
# MiaPaCa-2 = system: MiaPaCa-2; set-up: method as in earlier work; details: cited from earlier work; for IC50: MTT assay; for SI MiaPaCa-2: selectivity index vs HaCaT
# PC3 = system: PC3; set-up: method as in earlier work; details: cited from earlier work; for IC50: MTT assay; for SI PC3: selectivity index vs HaCaT
# HCT-116 cells = details: cited from earlier work; for IC50: MTT assay, read-out: IC50 HCT116; for SI HCT116: selectivity index vs HaCaT
# [1] = RP-TLC lipophilicity (RM0, log PTLC, C0), silica gel RP-18F254, acetone/TRIS buffer pH 7.4; assay type: physicochemical; details: for RM0: RP-TLC, RM extrapolated to 0% acetone, TRIS buffer pH 7.4; for C0: chromatography hydrophobic index, C0 = −RM0/b; for chromatographic logP / log PTLC: from RM0 by calibration curve log PTLC = 1.2862RM0 + 0.2061
# Description: In connection with this, in the next stage of the study, the parameters of lipophilicity of the tested compounds were determined experimentally. […] This technique was used to determine the retardation coefficient Rf for each compound in eight mobile phases consisting of acetone and Tris buffer in different volume ratios (50–85% acetone). Next, the Rf values were converted to the chromatographic parameter RM, and then the obtained values were extrapolated to 0% acetone content in the mobile phase obtaining the lipophilicity parameter RM0 (Table S2).
# The parameter RM0 can be correlated to an experimental log P lipophilicity parameter of chemical molecules (log PTLC) by applying a calibration curve. The calibration curve was obtained by determining the Rf value for standard substances with a known log Plit value using the RP-TLC method under conditions analogous to those of the tested substances. After calculating the RM and RM0 values, the dependence of the log Plit parameter on the experimentally obtained RM0 values for standards was determined (Table 2).
# The chromatographic parameter of lipophilicity was determined by means of Soczewiński–Wachtmeister’s method. […] The acetone ratio was 50 to 85% (v/v) in increments of 5%. The tested compounds in the form of an ethanol solution at a concentration of 2.0 mg/mL each were spotted on chromatographic plates at an amount of 2 µL each. Before analysis, the chromatography chamber (Camag, Switzerland) was saturated with the mobile phase (50 mL) for 30 min. After development at 20 ± 2 °C and subsequent drying, the chromatograms were observed under UV light at 254 nm by using a Camag UV lamp (Muttenz, Switzerland). Each analysis was performed in triplicate. The average value of the retardation factor (Rf) was used to calculate RM using Equation (1):(1) RM=log(1−Rf/Rf)
# In addition, the chromatographic parameter of lipophilicity RM0 and b value allowed the determination of the chromatography hydrophobic index C0 by using the following formula:(3) C0=− RM0/b
# [2] = system: standard strains of staphylococci; details: mainly against standard strains of staphylococci; cited from earlier work
Compound,IC50 (MDA) [µM],SI MDA (MDA),IC50 (A549 cells) [µM],SI A549 (A549 cells),SI A549 (A549 cells; listed as doxorubicin),IC50 (HaCaT cells) [µM],IC50 (MiaPaCa-2) [µM],SI MiaPaCa-2 (MiaPaCa-2),IC50 (PC3) [µM],SI PC3 (PC3),IC50 (HCT-116 cells) [µM],SI HCT116 (HCT-116 cells),RM0 [1],C0 [1],chromatographic logP [1],antibacterial activity [2],cytotoxic effects on HaCaT cells (HaCaT cells),log PTLC [1]
"COc1cccc2c1C(=O)c1c(O)c3c(c(O)c1C2=O)C[C@@](O)(C(=O)CO)C[C@@H]3O[C@H]1C[C@H](N)[C@H](O)[C@H](C)O1 [DX, doxorubicin, reference compound]",0.8 ± 0.1,0.15,0.6 ± 0.2,0.14,0.14–0.15,0.3 ± 0.1,0.6 ± 0.2,0.14,0.8 ± 0.1,0.15,0.59 ± 0.02,0.5,–,–,–,–,–,–
"O=C(O)c1ccccc1 [benzoic acid, reference compound]",–,–,–,–,–,–,–,–,–,–,–,–,1.16,–,–,–,–,–
CCN(CC)CCN1c2cc(Cl)ccc2Sc2cc3ccccc3nc21 [compound 1],< 100,1.0,27.2 ± 8.4,3.7,–,< 100,–,–,–,–,–,–,3.98,69.58,5.33,moderate antibacterial activity,–,–
CN(C)CCCN1c2cc(Cl)ccc2Sc2cc3ccccc3nc21 [compound 2],52.1 ± 2.7,1.2,8.2,7.6,–,62.3 ± 2.5,40.2 ± 0.7,1.6,52.1 ± 7.1,1.2,1.6,–,3.77,70.60,–,moderate antibacterial activity,no cytotoxic effects,5.05
Clc1ccc2c(c1)N(CCN1CCCC1)c1nc3ccccc3cc1S2 [compound 3],77.1 ± 1.6,1.3,17.4 ± 4.1,5.7,–,< 100,57.4 ± 9.6,1.7,77.1 ± 9.4,1.3,17.5 ± 1.4,5.7,3.96,73.88,5.29,moderate antibacterial activity,–,–
Clc1ccc2c(c1)N(CCN1CCCCC1)c1nc3ccccc3cc1S2 [compound 4],< 100,1.0,63.8 ± 8.5,1.6,–,< 100,–,–,–,–,–,–,4.01,73.04,5.36,–,–,–
CN1CCCCC1CCN1c2cc(Cl)ccc2Sc2cc3ccccc3nc21 (stereo not drawn) [compound 5],16.7 ± 1.1,0.9,16 ± 4.2,1,–,12.7 ± 1.9,24.3 ± 3.5,0.5,16.7 ± 1.8,0.7,7.7,1.6,4.20,84.51,–,–,–,5.61
O=C1c2ccccc2C(=O)N1CCCN1c2cc(Cl)ccc2Sc2cc3ccccc3nc21 [compound 6],–,–,–,–,–,–,–,–,–,–,–,–,4.12,82.90,5.5,–,–,–
CC(=O)NCCCN1c2cc(Cl)ccc2Sc2cc3ccccc3nc21 [compound 7],76.6 ± 8.9,1.3,24.6 ± 6.1,4.1,–,< 100,–,–,–,–,–,–,2.72,76.19,3.7,–,–,–
CCOC(=O)NCCCN1c2cc(Cl)ccc2Sc2cc3ccccc3nc21 [compound 8],< 100,1.0,86.6 ± 0.8,1.1,–,< 100,–,–,–,–,–,–,3.76,81.74,–,–,–,5.04
CS(=O)(=O)NCCCN1c2cc(Cl)ccc2Sc2cc3ccccc3nc21 [compound 10],< 100,1.0,–,1.0,–,< 100,–,–,–,–,–,–,3.37,76.24,4.53,–,–,–
Cc1ccc(S(=O)(=O)NCCCN2c3cc(Cl)ccc3Sc3cc4ccccc4nc32)cc1 [compound 11],< 100,1.0,–,1.0,–,< 100,–,–,–,–,–,–,4.59,79.96,6.1,–,–,–
O=C1c2ccccc2C(=O)N1CCCCN1c2cc(Cl)ccc2Sc2cc3ccccc3nc21 [compound 12],–,–,–,–,–,–,–,–,–,–,–,–,4.41,85.47,5.88,–,–,–
CC(=O)NCCCCN1c2cc(Cl)ccc2Sc2cc3ccccc3nc21 [compound 13],< 100,1.0,82.3 ± 6.2,1.2,–,< 100,–,–,–,–,–,–,3.11,77.17,4.21,–,–,–
CCOC(=O)NCCCCN1c2cc(Cl)ccc2Sc2cc3ccccc3nc21 [compound 14],< 100,1.0,–,1.0,–,< 100,–,–,–,–,–,–,4.06,82.86,5.43,–,–,–
CS(=O)(=O)NCCCCN1c2cc(Cl)ccc2Sc2cc3ccccc3nc21 [compound 16],< 100,0.2,30.5 ± 8.3,3.3,–,< 100,98.4 ± 5.6,1.0,–,1.0,0.7,143,3.65,76.36,4.9,–,no cytotoxic effects; also recorded: lack of toxicity to non-cancer cells,–
Cc1ccc(S(=O)(=O)NCCCCN2c3cc(Cl)ccc3Sc3cc4ccccc4nc32)cc1 [compound 17],< 100,1.0,9.45,10.5,–,< 100,–,1.0,48.6 ± 4.7,2.0,–,–,4.68,80.41,6.22,–,–,–
"CN(C)CCCN1c2ccccc2Sc2ccc(Cl)cc21 [compound 18, chlorpromazine, reference compound]",–,–,–,–,–,–,–,–,–,–,–,–,3.41,67.79,4.59,–,–,–
